Assay results taken from patent US8871681B2, “Herbicidal compositions comprising 4-amino-3-chloro-5-fluoro-6-(4-chloro-2-fluoro-3-methoxyphenyl) pyridine-2-carboxylic acid or a derivative thereof and certain sulfonylureas” (Dow AgroSciences LLC, priority 2012, dated 2014).

Experiments:
[1] = test system: CIRAR (Cirsium arvense, Canada thistle); assay: Post-emergence foliar-applied weed control in cereal crops, greenhouse (Example III); assay type: in vivo, Cirsium arvense (L.) Scop.; details: Cirsium arvense, post-emergence; Table 58 (cereal); foliar-applied; after 20-22 days; 3.75 gai/ha alone; read-out: Weed Control CIRAR Obs
Method: Seeds of the desired test plant species were planted in Sun Gro MetroMix® 306 planting mixture, which typically has a pH of 6.0 to 6.8 and an organic matter content of about 30 percent, in plastic pots with a surface area of 103.2 square centimeters (cm^2). When required to ensure good germination and healthy plants, a fungicide treatment and/or other chemical or physical treatment was applied. The plants were grown for 7-36 days in a greenhouse with an approximate 14 hour photoperiod which was maintained at about 18° C. during the day and 17° C. during the night. Nutrients and water were added on a regular basis and supplemental lighting was provided with overhead metal halide 1000-Watt lamps as necessary. The plants were employed for testing when they reached the second or third true leaf stage.
Treatments consisted of the benzyl ester of 4-amino-3-chloro-5-fluoro-6-(4-chloro-2-fluoro-3-methoxy-phenyl)pyridine-2-carboxylic acid (Compound A), formulated as an SC (suspension concentrate), and a second cereal herbicide alone and in combination.
Measured aliquot of benzyl ester of 4-amino-3-chloro-5-fluoro-6-(4-chloro-2-fluoro-3-methoxy-phenyl)pyridine-2-carboxylic acid (Compound A) was placed in 25 milliliter (mL) glass vials and diluted in a volume of 1.25% (v/v) Agri-dex crop oil concentrated to obtain stock solutions. Compound requirements are based upon a 12 mL application volume at a rate of 187 liters per hectare (L/ha). Spray solutions of the second cereal herbicide and experimental compound mixtures were prepared by adding the stock solutions to the appropriate amount of dilution solution to form 12 mL spray solution with active ingredients in two- and three-way combinations. Formulated compounds were applied to the plant material with an overhead Mandel track sprayer equipped with an 8002E nozzle calibrated to deliver 187 L/ha over an application area of 0.503 square meters (m^2) at a spray height of 18 inches (46 cm) above average plant canopy. Control plants were sprayed in the same manner with the solvent blank.
The treated plants and control plants were placed in a greenhouse as described above and watered by sub-irrigation to prevent wash-off of the test compounds. After 20-22 days, the condition of the test plants as compared with that of the control plants was determined visually and scored on a scale of 0 to 100 percent where 0 corresponds to no injury and 100 corresponds to complete kill.
Colby's equation was used to determine the herbicidal effects expected from the mixtures (Colby, S. R. 1967. Calculation of the synergistic and antagonistic response of herbicide combinations. Weeds 15:20-22.).
The following equation was used to calculate the expected activity of mixtures containing two active ingredients, A and B: Expected=A+B−(A×B/100)

[2] = test system: DIGSA (Digitaria sanguinalis, large crabgrass); assay: Postemergence foliar-applied weed control, direct seeded rice, greenhouse (Example I); assay type: in vivo, Digitaria sanguinalis (L.) Scop.; details: 20 DAA
Text: (§1) Seeds or nutlets of the desired test plant species were planted in a soil matrix prepared by mixing a loam or sandy loam soil (e.g., 28.6 percent silt, 18.8 percent clay, and 52.6 percent sand, with a pH of about 5.8 and an organic matter content of about 1.8 percent) and calcareous grit in an 80 to 20 ratio. The soil matrix was contained in plastic pots with a volume of 1 quart and a surface area of 83.6 square centimeters (cm^2). When required to ensure good germination and healthy plants, a fungicide treatment and/or other chemical or physical treatment was applied. The plants were grown for 8-22 days in a greenhouse with an approximate 14 h photoperiod which was maintained at about 29° C. during the day and 26° C. during the night. Nutrients (Peters Excel® 15-5-15 5-Ca 2-Mg and iron chelate) were applied in the irrigation solution as needed and water was added on a regular basis. Supplemental lighting was provided with overhead metal halide 1000-Watt lamps as necessary. The plants were employed for testing when they reached the first through fourth true leaf stage.
(§2) Treatments consisted of the acid or esters of 4-amino-3-chloro-5-fluoro-6-(4-chloro-2-fluoro-3-methoxy-phenyl)pyridine-2-carboxylic acid (Compound A), each formulated as an SC, and various herbicidal components alone and in combination. Forms of compound A were applied on an acid equivalent basis.
(§3) Other herbicidal components were applied on an active ingredient basis and included acetolactate synthase (ALS)-inhibiting herbicides (sulfonylurea chemical class) azimsulfuron formulated as Gulliver®, bensulfuron-methyl formulated as Londax® 60DF, cyclosulfamuron (technical material), ethoxysulfuron formulated as Sunrice® 15 WDG, flazasulfuron formulated as Katana®, flucetosulfuron formulated as Sukedachi® 1KG G, foramsulfuron formulated as Option®, imazosulfuron formulated as Brazzos® WG, iodosulfuron-methyl-sodium formulated as Hussar®, metsulfuron-methyl formulated as Lorate®, nicosulfuron formulated as Accent®, orthosulfamuron formulated as Strada® WG, primisulfuron-methyl (technical material), propyrisulfuron formulated as Zeta One®, rimsulfuron formulated as Matrix® WG, sulfometuron-methyl formulated as Oust®, and trifloxysulfuron-sodium formulated as Monument® 75WG.
(§4) Treatment requirements were calculated based upon the rates being tested, the concentration of active ingredient or acid equivalent in the formulation, and a 12 mL application volume at a rate of 187 L/ha.
(§5) For treatments comprised of formulated compounds, measured amounts of compounds were placed individually in 25 mL glass vials and diluted in a volume of 1.25% (v/v) Agri-Dex® crop oil concentrated to obtain 12× stock solutions. […] Application solutions were prepared by adding an appropriate amount of each stock solution (e.g., 1 mL) and diluted to the appropriate final concentrations with the addition of 10 mL of an aqueous mixture of 1.25% (v/v) crop oil concentrate so that the final spray solutions contained 1.25+/−0.05% (v/v) Agrcrop oil concentrate.
(§6) For treatments comprised of formulated and technical compounds, weighed amounts of the technical materials were placed individually in 25 mL glass vials and dissolved in a volume of 97:3 v/v acetone/DMSO to obtain 12× stock solutions, and measured amounts of the formulated compounds were placed individually in 25 mL glass vials and diluted in a volume of 1.25% (v/v) crop oil concentrate to obtain 12× stock solutions. […] Application solutions were prepared by adding an appropriate amount of each stock solution (e.g., 1 mL) and diluted to the appropriate final concentrations with the addition of an appropriate amount of an aqueous mixture of 1.5% (v/v) crop oil concentrate so that the final spray solutions contained 1.25% (v/v) crop oil concentrate. […]

[3] = test system: CYPES (Cyperus esculentus, yellow nutsedge); assay: as above; assay type: in vivo, Cyperus esculentus L.; details: 20 DAA
Text: as §1, §2, §3, §4, §5, §6

[4] = test system: LEFCH (Leptochloa chinensis, Chinese sprangletop); assay: as above; assay type: in vivo, Leptochloa chinensis (L.) Nees; details: Dinebra chinensis, post-emergence, 480 h, 20 DAA, read-out: Visual Weed Control (%) Obs
Text: as §1, §2, §3, §4, §5, §6

[5] = test system: LEFCH (Leptochloa chinensis, Chinese sprangletop); assay: In-water applied weed control, transplanted paddy rice, greenhouse (Example II); assay type: in vivo, Leptochloa chinensis (L.) Nees; details: Table 43, 17.5 gai/ha alone
Method: (§7) Weed seeds or nutlets of the desired test plant species were planted in puddled soil (mud) prepared by mixing a shredded, non-sterilized mineral soil (50.5 percent silt, 25.5 percent clay, and 24 percent sand, with a pH of about 7.6 and an organic matter content of about 2.9 percent) and water at a 1:1 volumetric ratio. The prepared mud was dispensed in 365 mL aliquots into 16-ounce (oz.) non-perforated plastic pots with a surface area of 86.59 square centimeters (cm^2) leaving a headspace of 3 centimeters (cm) in each pot. Rice seeds were planted in Sun Gro MetroMix® 306 planting mixture, which typically has a pH of 6.0 to 6.8 and an organic matter content of about 30 percent, in plastic plug trays. Seedlings at the second or third leaf stage of growth were transplanted into 860 mL of mud contained in 32-oz. non-perforated plastic pots with a surface area of 86.59 cm^2 4 days prior to herbicide application. The paddy was created by filling the headspace of the pots with 2.5 to 3 cm of water. When required to ensure good germination and healthy plants, a fungicide treatment and/or other chemical or physical treatment was applied. The plants were grown for 4-22 days in a greenhouse with an approximate 14 h photoperiod which was maintained at about 29′C during the day and 26° C. during the night. Nutrients were added as Osmocote® (19:6:12, N:P:K+minor nutrients) at 2 g per 16-oz. pot and 4 g per 32-oz. pot. Water was added on a regular basis to maintain the paddy flood, and supplemental lighting was provided with overhead metal halide 1000-Watt lamps as necessary. The plants were employed for testing when they reached the first through fourth true leaf stage.
(§8) Treatments consisted of the acid or esters of 4-amino-3-chloro-5-fluoro-6-(4-chloro-2-fluoro-3-methoxy-phenyl)pyridine-2-carboxylic acid (compound A) each formulated as an SC and various herbicidal components alone and in combination. Forms of compound A were applied on an acid equivalent basis.
(§9) Other herbicidal components were applied on an active ingredient basis and included acetolactate synthase (ALS)-inhibiting herbicides (sulfonylurea chemical class), azimsulfuron formulated as Gulliver®, bensulfuron-methyl formulated as Londax® 60DF, cyclosulfamuron (technical grade materail), ethoxysulfuron formulated as Sunrice® 15 WDG, flucetosulfuron formulated as Sukedachi® 1KG G, imazosulfuron formulated as Brazzos®, metsulfuron-methyl formulated as Lorate®, nicosulfuron formulated as Accent®, orthosulfamuron formulated as Strada® WG, propyrisulfuron formulated as Zeta One®, and rimsulfuron formulated as Matrix® WG.
(§10) Treatment requirements for each compound or herbicidal component were calculated based upon the rates being tested, the concentration of active ingredient or acid equivalent in the formulation, an application volume of 2 mL per component per pot, and an application area of 86.59 cm^2 per pot.
(§11) For formulated compounds, a measured amount was placed in an individual 100 or 200 mL glass vial and was dissolved in a volume of 1.25% (v/v) Agri-Dex® crop oil concentrate to obtain application solutions.
(§12) For technical grade compounds, a weighed amount was placed in an individual 100 to 200 mL glass vial and was dissolved in a volume of acetone to obtain concentrated stock solutions. […] The concentrated stock solutions obtained were diluted with an equivalent volume of an aqueous mixture containing 2.5% (v/v) crop oil concentrate so that the final application solutions contained 1.25% (v/v) crop oil concentrate.
(§13) Applications were made by injecting with a pipetter appropriate amounts of the application solutions, individually and sequentially, into the aqueous layer of the paddy. Control plants were treated in the same manner with the solvent blank. Applications were made so that all treated plant material received the same concentrations of acetone and crop oil concentrate. […]

[6] = test system: ECHOR (Echinochloa oryzoides, early watergrass); assay: as above; assay type: in vivo, Echinochloa oryzoides (Ard.) Fritsch
Method: as §7, §8, §9, §10, §11, §12, §13

[7] = test system: CYPRO (Cyperus rotundus, purple nutsedge); assay: as above; assay type: in vivo, Cyperus rotundus L.
Method: as §7, §8, §9, §10, §11, §12, §13

[8] = test system: CYPIR (Cyperus iria, rice flatsedge); assay: Postemergence foliar-applied weed control, direct seeded rice, greenhouse (Example I); assay type: in vivo, Cyperus iria L.; details: 20 DAA
Text: as §1, §2, §3, §4, §5, §6

[9] = test system: SCPMA (Bolboschoenus maritimus or Schoenoplectus maritimus, sea clubrush); assay: In-water applied weed control, transplanted paddy rice, greenhouse (Example II); assay type: in vivo, Bolboschoenus maritimus (L.) Palla
Method: as §7, §8, §9, §10, §11, §12, §13

[10] = test system: BRAPP (Brachiaria platyphylla, broadleaf signalgrass); assay: Postemergence foliar-applied weed control, direct seeded rice, greenhouse (Example I); assay type: in vivo, Brachiaria platyphylla (Griseb.) Nash; details: Urochloa platyphylla, post-emergence, 480 h, 20 DAA, read-out: Visual Weed Control (%) Obs
Text: as §1, §2, §3, §4, §5, §6

SMILES: COC(=O)c1sccc1S(=O)(=O)NC(=O)Nc1nc(C)nc(OC)n1 [Thifensulfuron-methyl]
- pest or weed control at 3.75 g/ha [1]: 35%

SMILES: COc1cc(OC)nc(NC(=O)NS(=O)(=O)c2ncccc2C(=O)N(C)C)n1 [Nicosulfuron, 2-[[[[(4,6-dimethoxy-2-pyrimidinyl)amino]carbonyl]amino]sulfonyl]-N,N-dimethyl-3-pyridinecarboxamide, reference compound]
- Visual Weed Control (%) Obs ([2]; 8.75 gai/ha): 30%
- Visual Weed Control (%) Obs ([2]; 17.5 gai/ha): 55%
- Visual Weed Control (%) Obs ([3]; 8.75 gai/ha): 10%
- Visual Weed Control (%) Obs ([3]; 17.5 gai/ha): 60%
- Visual Weed Control (%) Obs ([3]; 35 gai/ha): 70%
- pest or weed control at 35 g/ha ([4]; 35 gai/ha): 75%
- Visual Weed Control (%) - 20 DAA LEFCH Obs [5]: 60%
- Visual Weed Control (%) - 20 DAA ECHOR Obs ([6]; Table 43, 17.5 gai/ha alone): 0%
- Visual Weed Control (%) - 20 DAA ECHOR Obs ([6]; Table 44, 17.5 gai/ha alone): 0%
- Visual Weed Control (%) - 20 DAA ECHOR Obs ([6]; Table 44, 35 gai/ha alone): 50%
- Visual Weed Control (%) - 20 DAA CYPRO Obs ([7]; Table 43, 17.5 gai/ha alone): 30%
- Visual Weed Control (%) - 20 DAA CYPRO Obs ([7]; Table 43, 35 gai/ha alone): 70%
- Visual Weed Control (%) Obs ([8]; 8.75 gai/ha): 80%

SMILES: COc1cc(OC)nc(NC(=O)NS(=O)(=O)Nc2ccccc2C(=O)N(C)C)n1 [Orthosulfamuron, 2-[[[[[(4,6-dimethoxy-2-pyrimidinyl)amino]carbonyl]amino]sulfonyl]amino]-N,N-dimethylbenzamide]
- Visual Weed Control (%) - 20 DAA SCPMA Obs ([9]; Table 45, 60 gai/ha alone): 85%
- Visual Weed Control (%) - 20 DAA SCPMA Obs ([9]; Table 46, 60 gai/ha alone): 85%
- Visual Weed Control (%) Obs ([3]; 7.5 gai/ha): 0%
- Visual Weed Control (%) Obs ([3]; 15 gai/ha): 30%
- pest or weed control at 7.5 g/ha ([4]; 7.5 gai/ha): 0%
- pest or weed control at 15 g/ha ([4]; 15 gai/ha): 0%
- Visual Weed Control (%) - 21 DAA ECHOR Obs ([6]; Table 46, 15 gai/ha alone): 10%
- pest or weed control at 7.5 g/ha ([10]; 7.5 gai/ha): 0%
- pest or weed control at 15 g/ha ([10]; 15 gai/ha): 30%
- Visual Weed Control (%) Obs ([8]; 7.5 gai/ha): 50%
- Visual Weed Control (%) Obs ([8]; 15 gai/ha): 75%
- Visual Weed Control (%) Obs ([8]; 30 gai/ha): 65%
